# Experimental data reported in paper PMC11435065, “Inhibition of P-Glycoprotein Asymmetrically Alters the In Vivo Exposure Profile of SGC003F: A Novel Guanylate Cyclase Stimulator” (Pharmaceuticals, 2024).
# Read-outs that look alike come from different tables or passages of the source.
# Legend:
# [1] = In vitro metabolic stability in human liver microsomes; type: in vitro ADME; settings: 1 µM, up to 60 min, NADPH or UDPGA
# Method: In vitro incubation dependent on NADPH: SGC003F was added into rat and human liver microsomes diluted in PBS (100 mM, pH 7.3). NADPH was introduced into the system. The NADPH had been pre-equilibrated under the same conditions for 5 min to initiate the enzymatic reaction. The incubation mixture was meticulously prepared to achieve the following final concentrations: 1 µM for SGC003F, 0.5 mg/mL for the liver microsomal protein, and 1 mM for NADPH.
# In vitro incubation dependent on UDPGA: rat and human liver microsomes diluted in PBS (100 mM, pH 7.3) were mixed with alamethicin and then placed on ice for 15 min before the addition of the working solution of SGC003F. After preincubation in a water bath at 37 °C for 5 min, UDPGA, which had been preincubated for 5 min was added to initiate the reaction. The final concentrations in the incubation system were as follows: 1 μM for SGC003F, 0.5 mg/mL for liver microsomal protein concentration, 5 mM for UDPGA, and 25 μg/mL for alamethicin.
# Positive probe substrate assays were utilized to ensure normal activity of the incubation system. […] Finally, 60 μL supernatant was taken and diluted with 60 μL of 50% acetonitrile before being analyzed by LC-MS/MS.
# P-gp (human MDR1) = biological target: T1, P-gp (human MDR1) (Homo sapiens, UniProt P08183); experiment: Bidirectional transport across LLC-PK1-MDR1 monolayer cells with or without tariquidar; type: in vitro ADME; settings: for efflux ratio at 2 h, 2 µM: human, read-out: ER value (efflux ratio)
# T1 construct: expressed in transfected cells; host or cells: LLC-PK1 cells stably expressing human MDR1 (gift of Professor Qingcheng Mao, University of Washington)
# Description: Cell lines: LLC-PK1 cells with stable-expressing human MDR1 and mock-transfected with empty vector (LLC-PK1-MOCK) were gifted by the lab of Professor Qingcheng Mao (University of Washington, Seattle, WA, USA). The culture medium of the LLC-PK1-MOCK and LLC-PK1-MDR1 cells was 1640 medium containing 10% FBS and 100 U/mL PS. The Caco-2 cells were purchased from ADCC. The Caco-2 cell culture medium was DMEM high-glucose medium (containing 10% FBS, 1% non-essential amino acid solution, 100 U/mL PS). Both cell lines were cultured at 37 °C in a cell incubator containing 5% CO2.
# LLC-PK1-MDR1, LLC-PK1-MOCK, and Caco-2 cells were seeded in 24-well Transwell cell plates at optimized densities. The medium was changed every other day for the LLC-PK1 cells and every day for the Caco-2 cells. The LLC-PK1 cells were cultured continuously for 4–7 days, while the Caco-2 cells were cultured continuously for 28–35 days in preparation for transport experiments. Prior to the experiment, TEER (transepithelial electrical resistance) values were measured using a cell resistance meter. For electrical measurements, two electrodes were used, with one electrode placed in the upper compartment and the other in the lower compartment and the electrodes were separated by the cellular monolayer. The measurement procedure included measuring the blank resistance (Rblank) of the semipermeable membrane only (without cells) and measuring the resistance across the cell layer on the semipermeable membrane (Rtotal). TEER values were achieved by calculating as TEER = (Rtotal − Rblank) × Marea in the unit of Ω·cm^2. The monolayer integrity was guaranteed by determining the TEER before and after the bidirectional transport experiments. […]
# The apparent permeability rate value (Papp) of the monolayer cells was calculated according to Equation (5) Papp = (dQ/dt)/(A × C0)(5) where dQ/dt is the transport rate (µmol·s^−1); A is the insert surface area (0.33 cm^2); C0 is the initial concentration of the compound (µM).
# Efflux rate (ER) was calculated according to Equation (6):ER = Papp B-A/PappA-B(6)
# T1 sequence (P08183 whole entry): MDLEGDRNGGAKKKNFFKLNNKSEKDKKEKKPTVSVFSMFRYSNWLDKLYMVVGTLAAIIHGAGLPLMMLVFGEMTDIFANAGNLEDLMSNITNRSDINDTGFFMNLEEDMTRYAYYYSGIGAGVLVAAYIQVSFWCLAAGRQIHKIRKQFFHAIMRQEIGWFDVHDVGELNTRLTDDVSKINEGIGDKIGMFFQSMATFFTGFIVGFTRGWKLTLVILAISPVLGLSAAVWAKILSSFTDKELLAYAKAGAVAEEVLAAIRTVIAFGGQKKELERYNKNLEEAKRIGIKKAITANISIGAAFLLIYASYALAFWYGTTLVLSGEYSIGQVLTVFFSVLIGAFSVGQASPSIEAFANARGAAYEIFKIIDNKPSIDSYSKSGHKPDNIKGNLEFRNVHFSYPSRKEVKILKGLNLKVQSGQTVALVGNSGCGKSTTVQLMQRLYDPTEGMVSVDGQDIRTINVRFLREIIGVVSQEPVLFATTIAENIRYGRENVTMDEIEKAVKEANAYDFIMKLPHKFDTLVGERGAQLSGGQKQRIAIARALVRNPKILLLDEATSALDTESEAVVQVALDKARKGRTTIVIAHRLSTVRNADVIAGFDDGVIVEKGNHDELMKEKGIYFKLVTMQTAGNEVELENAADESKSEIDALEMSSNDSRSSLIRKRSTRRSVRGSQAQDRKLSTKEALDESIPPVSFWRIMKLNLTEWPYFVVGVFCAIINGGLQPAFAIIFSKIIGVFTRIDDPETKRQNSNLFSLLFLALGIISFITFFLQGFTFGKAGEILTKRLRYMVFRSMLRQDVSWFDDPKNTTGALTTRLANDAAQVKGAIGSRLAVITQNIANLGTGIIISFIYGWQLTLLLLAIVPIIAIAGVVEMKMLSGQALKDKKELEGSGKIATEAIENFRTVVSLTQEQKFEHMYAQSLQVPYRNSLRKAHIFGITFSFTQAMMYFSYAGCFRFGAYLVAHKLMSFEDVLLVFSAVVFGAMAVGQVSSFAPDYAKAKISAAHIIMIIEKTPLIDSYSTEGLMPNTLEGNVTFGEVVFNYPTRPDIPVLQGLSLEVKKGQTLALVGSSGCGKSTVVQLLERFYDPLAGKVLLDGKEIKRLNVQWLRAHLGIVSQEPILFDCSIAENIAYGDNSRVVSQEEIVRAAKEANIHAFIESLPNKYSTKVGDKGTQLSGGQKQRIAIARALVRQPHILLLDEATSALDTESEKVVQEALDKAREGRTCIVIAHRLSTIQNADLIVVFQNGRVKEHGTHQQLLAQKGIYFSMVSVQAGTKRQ
structure (smiles),measurement,setting,value
COC(=O)Nc1c(N)nc(-c2nn(Cc3sccc3F)c3ncc(F)cc23)nc1N [SGC003F],Metabolic stability (percentage of drug remaining over time),[1],no significant metabolic elimination
same,P-gp substrate assessment,"P-gp (human MDR1); LLC-PK1-MDR1 vs LLC-PK1-MOCK, with/without tariquidar",substrate for P-gp
same,"efflux ratio at 2 h, 2 µM","P-gp (human MDR1); LLC-PK1, LLC-PK1-MDR1 cells, without tariquidar",6.71
same,"efflux ratio at 2 h, 2 µM","P-gp (human MDR1); LLC-PK1, with tariquidar 5 µM, LLC-PK1-MDR1 cells, with tariquidar 5 µM",1.28
